Here are results for 37 compounds from ChEMBL document CHEMBL2311464, “Potent inhibitors of CDK5 derived from roscovitine: synthesis, biological evaluation and molecular modelling” (Bioorg Med Chem Lett, 2013).

As usually defined, the IC50 is the point on the concentration scale where inhibition reaches its midpoint.

Assay [1] addresses Glycogen synthase kinase-3 (Sus scrofa, UniProt B2LUN4+I6LNT8). Description: Inhibition of porcine GSK-3alpha/beta using YRRAAVPPSPSLSRHSSPHQSpEDEEE as substrate measured after 30 mins by scintillation counting.
The target in assay [2] is Cyclin-dependent kinase 2/cyclin A (Homo sapiens, UniProt P24941). Briefly: Inhibition of recombinant human CDK2/cyclin A after 30 mins by scintillation counting. It is filed as protein-complex assay.
A short description of assay [3]: Inhibition of porcine brain CK1 delta/epsilon using RRKHAAIGpSAYSITA as substrate measured after 30 mins by scintillation counting. Also noted: species or system Sus scrofa.
Assay [4] deals with Cyclin-dependent kinase 5/CDK5 activator 1 (Homo sapiens, UniProt Q00535). Briefly: Inhibition of recombinant human CDK5/p25 after 30 mins by scintillation counting. It is filed as protein-complex assay.
Chain of Cyclin-dependent kinase 5/CDK5 activator 1 (Q00535 whole entry): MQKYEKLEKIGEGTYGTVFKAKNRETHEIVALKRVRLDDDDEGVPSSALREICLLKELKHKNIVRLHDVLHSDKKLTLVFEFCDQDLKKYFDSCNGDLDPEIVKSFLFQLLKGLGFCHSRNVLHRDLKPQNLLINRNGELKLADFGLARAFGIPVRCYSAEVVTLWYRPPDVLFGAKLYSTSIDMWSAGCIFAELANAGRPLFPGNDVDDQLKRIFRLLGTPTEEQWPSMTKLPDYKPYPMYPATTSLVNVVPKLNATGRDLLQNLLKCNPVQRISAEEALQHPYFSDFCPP
Chain of Cyclin-dependent kinase 5/CDK5 activator 1 (Q15078 whole entry, further chain): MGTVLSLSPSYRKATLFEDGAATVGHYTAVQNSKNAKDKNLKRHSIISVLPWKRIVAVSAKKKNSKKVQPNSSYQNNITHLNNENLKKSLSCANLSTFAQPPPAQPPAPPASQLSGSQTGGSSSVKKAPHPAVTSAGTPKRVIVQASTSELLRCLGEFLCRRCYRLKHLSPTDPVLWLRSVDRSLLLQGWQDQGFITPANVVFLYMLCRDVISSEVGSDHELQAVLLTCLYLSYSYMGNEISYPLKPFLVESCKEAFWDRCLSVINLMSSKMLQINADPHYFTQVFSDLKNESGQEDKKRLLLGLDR
Another assay in a line: cells. The settings on record: Homo sapiens, SH-SY5Y, 48 h.
For assay [5], the system named is SH-SY5Y. Description: Ratio of roscovitine IC50 to compound IC50 for human SH-SY5Y cells after 48 hrs by MTS assay. It is filed as functional. A general note: Tetrazolium dyes change colour on reduction, which living cells bring about.
Assay [6] relates to SH-SY5Y. Description: Ratio of DRF53 IC50 to compound IC50 for human SH-SY5Y cells after 48 hrs by MTS assay. It is filed as functional.
Assay [7] addresses Dual specificity tyrosine-phosphorylation-regulated kinase 1A (Homo sapiens, UniProt Q13627). Briefly: Inhibition of recombinant GST-fused human DYRK1A expressed in Escherichia coli using KKISGRLSPIMTEQ as substrate.

Description for cells: Cytotoxicity against human SH-SY5Y cells after 48 hrs by MTS assay

Consider `CC[C@H](CO)Nc1nc(Nc2cccnc2)c2ncn(C(C)C)c2n1`, for which the 50% inhibitory concentration (IC50) amounted to 10000 nM in assay [1]; 50 nM in assay [2]; 1000 nM in assay [3]; 25 nM in assay [4]; 1800 nM in the assay “cells”.
Taken in the same sequence, the figures for `CC(C)[C@@H](CO)Nc1nc(Nc2ccncn2)c2ncn(C(C)C)c2n1` were 22000 nM, 790 nM, 4900 nM, 3200 nM and 1800 nM.
For the compound `CC(C)n1cnc2c(Nc3ccncc3)nc(Cl)nc21`, the concentration for half-maximal inhibition (IC50) came out at 18000 nM in assay [1]; 700 nM in assay [2]; 2100 nM in assay [3]; 7400 nM in assay [4]; 1800 nM in the assay “cells”.
Taken in the same sequence, the figures for `CC[C@@H](CO)Nc1nc(Nc2cccnc2)c2ncn(C(C)C)c2n1` were over 10000 nM, 14 nM, 2000 nM, 90 nM and 1800 nM.
On the same counts, the results for `CC(C)n1cnc2c(Nc3cccnc3)nc(Cl)nc21` are over 10000 nM, 680 nM, 2100 nM, 1100 nM and 1800 nM.
On to `CC[C@@H](CO)Nc1nc(Nc2ccccn2)c2ncn(C(C)C)c2n1`, for which the IC50 in assay [1] worked out at 21000 nM; in assay [2], 530 nM; in assay [3], 12000 nM; in assay [4], 4100 nM; in the assay “cells”, 1800 nM.
Consider `CC(C)[C@@H](CO)Nc1nc(Nc2cccnc2)c2ncn(C(C)C)c2n1`, for which the IC50 is over 10000 nM in assay [1]; 120 nM in assay [2]; 2700 nM in assay [3]; 300 nM in assay [4]; 1800 nM in the assay “cells”.
On the same counts, the results for `CC(C)n1cnc2c(Nc3cncnc3)nc(Nc3cncnc3)nc21` are over 10000 nM, 170 nM, 220 nM, 360 nM and 1800 nM.
On the same counts, the results for `CC(C)[C@H](CO)Nc1nc(Nc2cccnc2)c2ncn(C(C)C)c2n1` are 7300 nM, 18 nM, 2200 nM, 22 nM and 1800 nM.
Taken in the same sequence, the figures for `CC[C@@H](CO)Nc1nc(Nc2cncnc2)c2ncn(C(C)C)c2n1` were over 10000 nM, 23 nM, 930 nM, 76 nM and 1800 nM.
As to `CC[C@@H](CO)Nc1nc(Nc2ccncc2)c2ncn(C(C)C)c2n1`, the concentration for half-maximal inhibition (IC50) is 6000 nM in assay [1]; 50 nM in assay [2]; over 1000 nM in assay [3]; 50 nM in assay [4]; 1800 nM in “cells”.
Take `CC(C)[C@@H](CO)Nc1nc(Nc2ncccn2)c2ncn(C(C)C)c2n1`: the concentration for half-maximal inhibition (IC50) in assay [1] is over 10000 nM; in assay [2], 9000 nM; in assay [3], over 10000 nM; in assay [4], 10000 nM; in “cells”, 1800 nM.
With `CC(C)[C@@H](CO)Nc1nc(Nc2ccnnc2)c2ncn(C(C)C)c2n1`, the half-maximal inhibitory concentration (IC50) amounted to 4300 nM in assay [1]; 120 nM in assay [2]; 1900 nM in assay [3]; 230 nM in assay [4]; 1800 nM in “cells”.
Regarding `CC[C@H](CO)Nc1nc(Nc2ccncn2)c2ncn(C(C)C)c2n1`, the IC50 is over 10000 nM in assay [1], 1200 nM in assay [2] and 5800 nM in assay [3].
On to `CC[C@H](CO)Nc1nc(NCc2ccccc2)c2ncn(C(C)C)c2n1` [SELICICLIB], for which the concentration for half-maximal inhibition (IC50) was found to be 2300 nM in assay [3] and 17400 nM in “cells”.
On to `CC(C)[C@@H](CO)Nc1nc(Nc2ccccn2)c2ncn(C(C)C)c2n1`, for which the IC50 was over 10000 nM in assay [1]; 1200 nM in assay [2]; 11000 nM in assay [3]; 1900 nM in assay [4]; 1800 nM in the assay “cells”.
Consider `CC[C@H](CO)Nc1nc(Nc2cncnc2)c2ncn(C(C)C)c2n1`, for which the half-inhibitory concentration (IC50) was over 10000 nM in assay [1]; 18 nM in assay [2]; 600 nM in assay [3]; 42 nM in assay [4]; 1800 nM in “cells”.
For `CC[C@@H](CO)Nc1nc(Nc2ccncn2)c2ncn(C(C)C)c2n1`, the IC50 in assay [1] is over 10000 nM; in assay [2], 2000 nM; in assay [3], 8300 nM.
`CC(C)n1cnc2c(Nc3ccccn3)nc(Cl)nc21`: the concentration for half-maximal inhibition (IC50) in assay [1] was over 10000 nM; in assay [2] it was 6200 nM; in assay [3], 3000 nM; in assay [4], 2100 nM; in the assay “cells”, 1800 nM.
Consider `CC(C)[C@H](CO)Nc1nc(Nc2ccncc2)c2ncn(C(C)C)c2n1`, for which the IC50 in assay [1] was 12000 nM; in assay [2] it was 20 nM; in assay [3] it was 1800 nM; in assay [4], 21 nM; in “cells”, 1800 nM.
On to `CC(C)n1cnc2c(Nc3ccncn3)nc(Cl)nc21`, for which the IC50 in assay [1] is over 10000 nM; in assay [2], 13000 nM; in assay [3], 8000 nM; in assay [4], over 10000 nM; in the assay “cells” it was 1800 nM; in assay [7], over 10000 nM. For the same compound, the “Ratio IC50” value with SH-SY5Y [5] and in the assay with SH-SY5Y [6] was 5 in each case.
`CC(C)[C@H](CO)Nc1nc(Nc2cncnc2)c2ncn(C(C)C)c2n1`: the IC50 was 5000 nM in assay [1]; 20 nM in assay [2]; 1300 nM in assay [3]; 38 nM in assay [4]; 1800 nM in the assay “cells”.
Turning to `CC(C)[C@@H](CO)Nc1nc(Nc2cncnc2)c2ncn(C(C)C)c2n1`, the IC50 in assay [1] worked out at 16000 nM; in assay [2], 110 nM; in assay [3], 2000 nM; in assay [4] it was 370 nM; in “cells”, 1800 nM.
Consider `CC(C)n1cnc2c(Nc3cnccn3)nc(Cl)nc21`, for which the 50% inhibitory concentration (IC50) in assay [1] was over 10000 nM; in assay [2], 3100 nM; in assay [3], 7000 nM; in assay [4], 12000 nM; in “cells”, 1800 nM.
For `CC(C)[C@@H](CO)Nc1nc(Nc2ccncc2)c2ncn(C(C)C)c2n1`, the concentration for half-maximal inhibition (IC50) in assay [1] turned out to be 7800 nM; in assay [2], 130 nM; in assay [3] it was 3300 nM; in assay [4], 200 nM; in the assay “cells”, 1800 nM.
With `CC(C)n1cnc2c(Nc3ccnnc3)nc(Cl)nc21`, the IC50 in assay [1] is over 10000 nM; in assay [2], 1600 nM; in assay [3] it was 1100 nM; in assay [4] it was 3000 nM; in “cells”, 1800 nM.
Taken in the same sequence, the figures for `CC(C)[C@H](CO)Nc1nc(Nc2ccnnc2)c2ncn(C(C)C)c2n1` were 6000 nM, 28 nM, 800 nM, 41 nM and 1800 nM.
On to `CC[C@H](CO)Nc1nc(Nc2ccnnc2)c2ncn(C(C)C)c2n1`, for which the half-maximal inhibitory concentration (IC50) in assay [1] was 13000 nM; in assay [2], 72 nM; in assay [3] it was 500 nM; in assay [4], 60 nM; in “cells” it was 1800 nM.
Regarding `CC(C)n1cnc2c(Nc3cncnc3)nc(Cl)nc21`, the IC50 in assay [1] was over 10000 nM; in assay [2] it was 180 nM; in assay [3], 2300 nM; in assay [4], 2800 nM; in the assay “cells”, 1800 nM.
Consider `CC[C@@H](CO)Nc1nc(Nc2ncccn2)c2ncn(C(C)C)c2n1`, for which the 50% inhibitory concentration (IC50) is over 10000 nM in assay [1]; 7300 nM in assay [2]; over 10000 nM in assay [3]; 11000 nM in assay [4]; 1800 nM in the assay “cells”.
`CC(C)[C@H](CO)Nc1nc(Nc2ncccn2)c2ncn(C(C)C)c2n1`: the IC50 in assay [1] is over 10000 nM; in assay [2], over 10000 nM; in assay [3], over 10000 nM; in assay [4], over 10000 nM; in “cells” it was 1800 nM.
As to `CC[C@@H](CO)Nc1nc(Nc2ccnnc2)c2ncn(C(C)C)c2n1`, the IC50 in assay [1] stood at 7300 nM; in assay [2], 29 nM; in assay [3], 1000 nM; in assay [4] it was 42 nM; in “cells”, 1800 nM.
Consider `CC(C)[C@H](CO)Nc1nc(Nc2ccccn2)c2ncn(C(C)C)c2n1`, for which the IC50 is over 10000 nM in assay [1]; 800 nM in assay [2]; 6200 nM in assay [3]; 1100 nM in assay [4]; 1800 nM in “cells”.
In the case of `CC[C@H](CO)Nc1nc(Nc2ccncc2)c2ncn(C(C)C)c2n1`, the IC50 is over 10000 nM in assay [1]; 38 nM in assay [2]; 1000 nM in assay [3]; 17 nM in assay [4]; 1800 nM in the assay “cells”.
Taken in the same sequence, the figures for `CC(C)[C@H](CO)Nc1nc(Nc2ccncn2)c2ncn(C(C)C)c2n1` were over 10000 nM, 330 nM, 2800 nM, 730 nM and 1800 nM.
Taken in the same sequence, the figures for `CC[C@H](CO)Nc1nc(Nc2ncccn2)c2ncn(C(C)C)c2n1` were over 10000 nM, over 10000 nM, over 10000 nM, over 10000 nM and 1800 nM.
Taken in the same sequence, the figures for `CC[C@H](CO)Nc1nc(Nc2ccccn2)c2ncn(C(C)C)c2n1` were 33000 nM, 1000 nM, 6200 nM, 2300 nM and 1800 nM.
